Laboratory results reported in US20240059671A1, “TYROSINE KINASE 2 (TYK2) DEGRADATION COMPOUNDS AND METHODS OF USE” (CULLGEN (SHANGHAI), INC., priority 2020, published 2024).
Entries after “also recorded” stand apart in the source; their conditions may differ.

Tests used:
Assay type in all cases: cell-based
[1] = molecular target: T1, TYK2 (Homo sapiens, UniProt P29597); test: TYK2 protein levels in Jurkat cells by immunoblotting; design: endogenous in cells; details: 3 or 30 nM, 16 hours
Experimental: (§1) Jurkat cells were treated with DMSO or a dose range of heterobifunctional compounds CPD-155, CPD-158, and CPD-164 at 3 or 30 nM concentrations for 16 hours. Cells were subsequently treated with IFNα (2000 IU) for 15 min as indicated.
(§2) Cultured cells were washed with cold PBS once and lysed in cold RIPA buffer supplemented with protease inhibitors and phosphatase inhibitors (Beyotime Biotechnology). The solutions were then incubated at 4° C. for 30 minutes with gentle agitation to fully lyse cells. Cell lysates were centrifuged at 13,000 rpm for 10 minutes at 4° C. and pellets were discarded. Total protein concentrations in the lysates were determined by BCA assays (Beyotime Biotechnology). Cell lysates were mixed with Laemmli loading buffer to 1× and heated at 99° C. for 5 min. Proteins were resolved on SDS-PAGE and visualized by chemiluminescence. Images were taken by a ChemiDoc MP Imaging system (Bio-Rad). Protein bands were quantitated using the accompanied software provided by Bio-Rad.

[2] = molecular target: T1, TYK2; test: TYK2 protein degradation in NOMO-1 cells by immunoblotting; design: endogenous in cells; details: for TYK2 Degradation (NOMO-1, 10 nM) / TYK2 Degradation (NOMO-1, 100 nM): NOMO-1 cells; for Reduction of TYK2 protein levels over a dose range (FIG. 2): NOMO-1 cells, 0.1, 1, 10, 100 and 1000 nM, 16 hours
How it was run: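 Read-out was densitometry of chemiluminescent TYK2 immunoblot bands from RIPA lysates after SDS-PAGE. Before lysis, NOMO-1 cells cultured in RPMI 1640 plus 10% FBS were treated for 16 h at 0.1, 1, 10, 100 and 1000 nM.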

[3] = system: phosphorylation of STAT1 (Tyr701) and STAT3 (Tyr705); test: IFNα-induced STAT1/3 phosphorylation in Jurkat cells by immunoblotting; details: 3 or 30 nM, 16 hours, then IFNα (2000 IU) for 15 min
Experimental: as §1
(§3) Rabbit anti-JAK1antibody (3344S), anti-JAK2 antibody (3230S), anti-JAK3 antibody (8827S), anti-TYK2 antibody (14193S), anti-STAT1 antibody (9167S), anti-STAT3 antibody (9139S), anti-phospho-STAT1 (Tyr701) antibody ([…]), anti-phospho-STAT3 (Tyr705) antibody (9145S), were purchased from Cell Signaling Technology; anti-β-actin antibody (ab8226) was from Abeam; HRP-conjugated anti-α-Tubulin (GNI4310-AT) antibody was purchased from GNI. Media and other cell culture reagents were purchased from Thermo Fisher.
as §2

[4] = molecular target: T1, TYK2; test: TYK2 protein degradation in MOLT-4 cells by immunoblotting; design: endogenous in cells; host or cells: MOLT-4; details: 24 hours
How it was run: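 Percent TYK2 degradation came from densitometry of chemiluminescent immunoblots of RIPA lysates. Before lysis, MOLT-4 cells had been treated for 24 h with each compound at 0.5 or 5 μM.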

[5] = system: JAK1, JAK2, and JAK3; test: Immunoblot of JAK1/2/3 protein levels in MOLT-4 cells (selectivity of TYK2 reduction); details: MOLT-4 cells, 0.04, 0.2, 1, and 5 μM, 24 hours
Experimental: MOLT-4 cells were treated with CPD-038, CPD-039, and CPD-040 at 0.04, 0.2, 1, and 5 μM concentrations for 24 hours.
as §3, §2

T1 sequence (P29597 whole entry): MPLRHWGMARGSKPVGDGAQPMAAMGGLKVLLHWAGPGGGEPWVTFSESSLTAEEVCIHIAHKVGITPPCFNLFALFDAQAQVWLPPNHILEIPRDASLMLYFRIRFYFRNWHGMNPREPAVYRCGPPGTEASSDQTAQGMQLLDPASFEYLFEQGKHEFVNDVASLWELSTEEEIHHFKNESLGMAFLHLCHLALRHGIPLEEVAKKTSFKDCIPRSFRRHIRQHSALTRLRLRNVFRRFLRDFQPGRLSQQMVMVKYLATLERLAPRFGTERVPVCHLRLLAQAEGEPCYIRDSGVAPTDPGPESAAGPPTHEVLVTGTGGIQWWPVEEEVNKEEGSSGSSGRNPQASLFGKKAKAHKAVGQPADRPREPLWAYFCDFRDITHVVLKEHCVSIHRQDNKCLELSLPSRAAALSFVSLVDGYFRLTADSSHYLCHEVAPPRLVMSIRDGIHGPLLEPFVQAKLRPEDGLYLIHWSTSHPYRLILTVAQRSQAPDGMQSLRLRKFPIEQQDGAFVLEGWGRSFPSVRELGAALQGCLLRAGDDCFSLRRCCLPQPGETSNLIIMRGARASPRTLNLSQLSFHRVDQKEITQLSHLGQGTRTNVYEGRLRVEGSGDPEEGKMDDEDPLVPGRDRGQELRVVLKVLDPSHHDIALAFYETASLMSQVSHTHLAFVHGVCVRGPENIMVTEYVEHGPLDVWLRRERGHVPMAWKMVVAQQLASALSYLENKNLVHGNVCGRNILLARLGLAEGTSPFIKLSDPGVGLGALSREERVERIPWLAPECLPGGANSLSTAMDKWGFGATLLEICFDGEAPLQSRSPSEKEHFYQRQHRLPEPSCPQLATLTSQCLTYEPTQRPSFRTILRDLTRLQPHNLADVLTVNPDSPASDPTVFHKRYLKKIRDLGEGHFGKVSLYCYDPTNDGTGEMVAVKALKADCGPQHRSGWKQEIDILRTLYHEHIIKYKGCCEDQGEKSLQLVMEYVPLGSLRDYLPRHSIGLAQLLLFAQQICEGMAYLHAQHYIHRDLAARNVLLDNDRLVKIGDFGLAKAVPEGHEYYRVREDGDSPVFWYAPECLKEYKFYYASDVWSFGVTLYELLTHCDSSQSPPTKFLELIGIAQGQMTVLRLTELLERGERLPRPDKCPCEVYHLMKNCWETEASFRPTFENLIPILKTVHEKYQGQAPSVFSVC

Row | TYK2 protein levels in Jurkat cells (FIG. 3) [1] | TYK2 Degradation (NOMO-1, 10 nM) [2] | Structure (SMILES) | TYK2 Degradation (NOMO-1, 100 nM) [2] | Reduction of TYK2 protein levels over a dose range (FIG. 2) [2] | Phosphorylation of STAT1 (Tyr701) and STAT3 (Tyr705) induced by IFNα (FIG. 3) [3] | TYK2 Degradation (0.5 μM) ([4]; MOLT-4 cells, 0.5 μM) [%] | TYK2 Degradation (5 μM) ([4]; MOLT-4 cells, 5 μM) [%] | Reduction of TYK2 protein levels over a dose range (FIG. 1) ([4]; MOLT-4 cells, 0.04, 0.2, 1, and 5 μM) | Selectivity of TYK2 protein reduction over JAK1, JAK2, and JAK3 (FIG. 1) [5]
1 | reduced levels of TYK2 proteins | A (A: ≥60% TYK2 degradation) | CNC(=O)c1nnc(Nc2ccc(C(=O)NCCCCCNc3cccc4c3C(=O)N(C3CCC(=O)NC3=O)C4=O)cn2)cc1Nc1cccc(-c2ncn(C)n2)c1OC (stereo not drawn) [CPD-155, 6-((5-((5-((2-(2,6-dioxopiperidin-3-yl)-1,3-dioxoisoindolin-4-yl)amino)pentyl)carbamoyl)pyridin-2-yl)amino)-4-((2-methoxy-3-(1-methyl-1H-1,2,4-triazol-3-yl)phenyl)amino)-N-methylpyridazine-3-carboxamide] | A (A: ≥60% TYK2 degradation) | concentration-dependently reduced the TYK2 proteins levels; also recorded: highly potent in reducing TYK2 protein levels | concentration-dependently reduced phosphorylation of STAT1 (Tyr701) and STAT3 (Tyr705) induced by IFNα treatment; also recorded: significantly decreased STAT1/3 phosphorylation downstream of IFNα stimulation | – | – | – | –
2 | – | – | CNC(=O)c1nnc(NC(=O)CNC(=O)CCCCCCCCC(=O)N[C@H](C(=O)N2C[C@H](O)C[C@H]2C(=O)NCc2ccc(-c3scnc3C)cc2)C(C)(C)C)cc1Nc1cccc(-c2ncn(C)n2)c1OC [CPD-040, N1-((S)-1-((2S,4R)-4-hydroxy-2-((4-(4-methylthiazol-5-yl)benzyl)carbamoyl)pyrrolidin-1-yl)-3,3-dimethyl-1-oxobutan-2-yl)-N10-(2-((5-((2-methoxy-3-(1-methyl-1H-1,2,4-triazol-3-yl)phenyl)amino)-6-(methylcarbamoyl)pyridazin-3-yl)amino)-2-oxoethyl)decanediamide] | – | – | – | 60 | 60 | concentration-dependently reduced the TYK2 proteins levels; also recorded: reduce TYK2 protein levels in a concentration-dependent manner | very selective at the reduction protein levels of TYK2 over JAK1, JAK2, and JAK3; also recorded: highly selective at the degradation of TYK2 over JAKT/2/3 proteins
3 | reduced levels of TYK2 proteins | A (A: ≥60% TYK2 degradation) | CNC(=O)c1nnc(Nc2ccc(C(=O)NCCCCCNc3ccc4c(c3)C(=O)N(C3CCC(=O)NC3=O)C4=O)cn2)cc1Nc1cccc(-c2ncn(C)n2)c1OC (stereo not drawn) [CPD-164, 6-((5-((5-((2-(2,6-dioxopiperidin-3-yl)-1,3-dioxoisoindolin-5-yl)amino)pentyl)carbamoyl)pyridin-2-yl)amino)-4-((2-methoxy-3-(1-methyl-1H-1,2,4-triazol-3-yl)phenyl)amino)-N-methylpyridazine-3-carboxamide] | B (B: <60% TYK2 degradation, and >20% TYK2 degradation) | – | concentration-dependently reduced phosphorylation of STAT1 (Tyr701) and STAT3 (Tyr705) induced by IFNα treatment; also recorded: significantly decreased STAT1/3 phosphorylation downstream of IFNα stimulation | – | – | – | –
4 | reduced levels of TYK2 proteins | A (A: ≥60% TYK2 degradation) | CNC(=O)c1nnc(Nc2ccc(C(=O)NCCCCCCCCNc3cccc4c3C(=O)N(C3CCC(=O)NC3=O)C4=O)cn2)cc1Nc1cccc(-c2ncn(C)n2)c1OC (stereo not drawn) [CPD-158, 6-((5-((8-((2-(2,6-dioxopiperidin-3-yl)-1,3-dioxoisoindolin-4-yl)amino)octyl)carbamoyl)pyridin-2-yl)amino)-4-((2-methoxy-3-(1-methyl-1H-1,2,4-triazol-3-yl)phenyl)amino)-N-methylpyridazine-3-carboxamide] | B (B: <60% TYK2 degradation, and >20% TYK2 degradation) | concentration-dependently reduced the TYK2 proteins levels; also recorded: highly potent in reducing TYK2 protein levels | concentration-dependently reduced phosphorylation of STAT1 (Tyr701) and STAT3 (Tyr705) induced by IFNα treatment; also recorded: significantly decreased STAT1/3 phosphorylation downstream of IFNα stimulation | – | – | – | –
